Laboratory results: US20260176320A1, “MODULATORS OF G-PROTEIN COUPLED RECEPTORS” (priority 2018, published 2026)
Where two headings read alike, the source gives them in different places. Square brackets hold non-standard residues; d marks the D form. Peptide text beside a SMILES is read from it. * marks the point of attachment. X1 = O=C(CSCC(=O)*)NCCN1C(=O)c2ccccc2C1=O; Aib = CC(C)(N)C(=O)O

Legend:
[1] = molecular target: GLP-1R (Homo sapiens, UniProt P43220); assay: HitHunter cAMP assay (GLP-1R); format: cell-based; details: cAMP; for Emax: read-out: (Emax) GLP-1R
Chain of GLP-1R (P43220 24-463): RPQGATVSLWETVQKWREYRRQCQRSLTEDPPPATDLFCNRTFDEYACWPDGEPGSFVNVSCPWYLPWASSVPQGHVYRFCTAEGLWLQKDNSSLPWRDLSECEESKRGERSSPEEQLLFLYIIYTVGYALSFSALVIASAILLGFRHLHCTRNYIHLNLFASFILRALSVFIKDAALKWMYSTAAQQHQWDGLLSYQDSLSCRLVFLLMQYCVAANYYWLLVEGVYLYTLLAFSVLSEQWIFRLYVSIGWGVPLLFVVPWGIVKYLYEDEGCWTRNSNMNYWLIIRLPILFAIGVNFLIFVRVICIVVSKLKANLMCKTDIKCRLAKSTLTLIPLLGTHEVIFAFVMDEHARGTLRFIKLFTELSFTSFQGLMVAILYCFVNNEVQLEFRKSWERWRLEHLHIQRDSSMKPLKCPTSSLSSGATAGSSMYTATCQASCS
Method in brief: (§1)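 cAMP accumulation read by luminescent HitHunter immunocompetition after 30 min room-temperature agonist stimulation. Agonists tested as 22-point twofold dilutions, in duplicate, on 10,000 cells/well in HBSS containing 625 μM IBMX, 10 mM HEPES and 0.2% BSA.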

[2] = molecular target: T1, GIP-R (Homo sapiens, UniProt P48546); assay: HitHunter cAMP assay (GIP-R); format: cell-based; details: cAMP; for Emax: read-out: (Emax) GIP-R
T1 sequence (P48546 22-466): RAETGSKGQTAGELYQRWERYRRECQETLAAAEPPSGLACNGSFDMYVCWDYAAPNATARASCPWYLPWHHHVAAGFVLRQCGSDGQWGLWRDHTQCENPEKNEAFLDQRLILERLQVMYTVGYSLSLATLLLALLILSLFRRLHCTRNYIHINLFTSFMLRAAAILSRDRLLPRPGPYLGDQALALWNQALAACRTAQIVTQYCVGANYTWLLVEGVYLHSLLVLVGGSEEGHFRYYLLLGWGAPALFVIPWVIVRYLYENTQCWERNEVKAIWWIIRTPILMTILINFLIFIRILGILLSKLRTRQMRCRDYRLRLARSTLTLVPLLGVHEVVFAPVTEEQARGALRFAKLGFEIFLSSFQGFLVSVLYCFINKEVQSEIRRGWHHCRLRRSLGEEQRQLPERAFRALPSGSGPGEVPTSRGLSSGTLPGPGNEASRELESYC
Method in brief: as §1

[3] = Table 3, read-out: EC50 GLP-1R/nM
[4] = Table 3A, read-out: EC50 GLP-1R/nM
[5] = Table 3, read-out: EC50 GIP-R/nM
[6] = Table 3A, read-out: EC50 GIP-R/nM

Q: With `CC[C@H](C)[C@H](NC(=O)[C@H](CO)NC(=O)[C@H](Cc1ccc(O)cc1)NC(=O)[C@H](CC(=O)O)NC(=O)[C@H](CO)NC(=O)[C@@H](NC(=O)[C@H](Cc1ccccc1)NC(=O)[C@@H](NC(=O)CNC(=O)[C@H](CCC(=O)O)NC(=O)C1(C(=O)NCCN2C(=O)CSC2=O)Cc2ccccc2C1)[C@@H](C)O)[C@@H](C)O)C(=O)N[C@@H](Cc1ccc(O)cc1)C(=O)N[C@@H](CC(C)C)C(=O)N[C@@H](CC(=O)O)C(=O)N[C@@H](CCCCN)C(=O)N[C@@H](CCC(N)=O)C(=O)N[C@@H](C)C(=O)N[C@@H](C)C(=O)NC(C)(C)C(=O)N[C@@H](CCC(=O)O)C(=O)N[C@@H](Cc1ccccc1)C(=O)N[C@H](C(=O)N[C@@H](CC(N)=O)C(=O)N[C@@H](Cc1c[nH]c2ccccc12)C(=O)N[C@@H](CC(C)C)C(=O)N[C@@H](CC(C)C)C(=O)N[C@@H](C)C(=O)NCC(=O)NCC(=O)N1CCC[C@H]1C(=O)N[C@@H](CO)C(=O)N[C@@H](CO)C(=O)NCC(=O)N[C@@H](C)C(=O)N1CCC[C@H]1C(=O)N1CCC[C@H]1C(=O)N1CCC[C@H]1C(=O)N[C@@H](CO)C(=O)N[C@@H](CCCCN)C(N)=O)C(C)C` [Compound 124] as the molecule, how does the EC50 ([1]; EC50 GLP-1R/nM, Table 3) read?
A: 10 to 100 nM

Q: And the EC50 ([1]; EC50 GLP-1R/nM, Table 3A)?
A: 10 to 100 nM

Q: And the Emax ([1]; Table 3)?
A: 73%

Q: And the Emax ([1]; Table 3A)?
A: 73%

Q: And the EC50 ([2]; EC50 GIP-R/nM, Table 3)?
A: > 1000 nM

Q: What about the Emax at 1 µM ([2]; read-out: (Emax) GIP-R at 1 μM, Table 3, at 1 μM) of the same molecule?
A: 10%

Q: What about the EC50 ([2]; read-out: EC50 GIP-R/nM, Table 3A) of the same molecule?
A: > 1000 nM

Q: Which Emax ([1]; Table 3) does the source give for `CC[C@H](C)[C@H](NC(=O)[C@H](CO)NC(=O)[C@H](Cc1ccc(O)cc1)NC(=O)[C@H](CC(=O)O)NC(=O)[C@H](CO)NC(=O)[C@@H](NC(=O)[C@H](Cc1ccccc1)NC(=O)[C@@H](NC(=O)CNC(=O)[C@H](CCC(=O)O)NC(=O)CC(=O)NCCCN1C(=O)c2ccccc2C1=O)[C@@H](C)O)[C@@H](C)O)C(=O)N[C@@H](Cc1ccc(O)cc1)C(=O)N[C@@H](CC(C)C)C(=O)N[C@@H](CC(=O)O)C(=O)N[C@@H](CCCCN)C(=O)N[C@@H](CCC(N)=O)C(=O)N[C@@H](C)C(=O)N[C@@H](C)C(=O)NC(C)(C)C(=O)N[C@@H](CCC(=O)O)C(=O)N[C@@H](Cc1ccccc1)C(=O)N[C@H](C(=O)N[C@@H](CC(N)=O)C(=O)N[C@@H](Cc1c[nH]c2ccccc12)C(=O)N[C@@H](CC(C)C)C(=O)N[C@@H](CC(C)C)C(=O)N[C@@H](C)C(=O)NCC(=O)NCC(=O)N1CCC[C@H]1C(=O)N[C@@H](CO)C(=O)N[C@@H](CO)C(=O)NCC(=O)N[C@@H](C)C(=O)N1CCC[C@H]1C(=O)N1CCC[C@H]1C(=O)N1CCC[C@H]1C(=O)N[C@@H](CO)C(=O)N[C@@H](CCCCN)C(N)=O)C(C)C` [Compound 125] here?
A: 94 to 100%

Q: What about the EC50 [1, 3] of the same molecule?
A: 10 to 100 nM

Q: What about the Emax ([1]; Table 3A) of the same molecule?
A: 94 to 100%

Q: And the EC50 [1, 4]?
A: 10 to 100 nM

Q: And the Emax ([2]; Table 3)?
A: 54 to 60%

Q: And the EC50 [2, 5]?
A: 1 to 10 nM

Q: And the Emax ([2]; Table 3A)?
A: 54 to 60%

Q: What about the EC50 [2, 6] of the same molecule?
A: 1 to 10 nM

Q: With `CC[C@H](C)[C@H](NC(=O)[C@H](CO)NC(=O)[C@H](Cc1ccc(O)cc1)NC(=O)[C@H](CC(=O)O)NC(=O)[C@H](CO)NC(=O)[C@@H](NC(=O)[C@H](Cc1ccccc1)NC(=O)[C@@H](NC(=O)CNC(=O)[C@H](CCC(=O)O)NC(=O)CC(=O)NCCN1C(=O)c2ccc(C)cc2C1=O)[C@@H](C)O)[C@@H](C)O)C(=O)N[C@@H](Cc1ccc(O)cc1)C(=O)N[C@@H](CC(C)C)C(=O)N[C@@H](CC(=O)O)C(=O)N[C@@H](CCCCN)C(=O)N[C@@H](CCC(N)=O)C(=O)N[C@@H](C)C(=O)N[C@@H](C)C(=O)NC(C)(C)C(=O)N[C@@H](CCC(=O)O)C(=O)N[C@@H](Cc1ccccc1)C(=O)N[C@H](C(=O)N[C@@H](CC(N)=O)C(=O)N[C@@H](Cc1c[nH]c2ccccc12)C(=O)N[C@@H](CC(C)C)C(=O)N[C@@H](CC(C)C)C(=O)N[C@@H](C)C(=O)NCC(=O)NCC(=O)N1CCC[C@H]1C(=O)N[C@@H](CO)C(=O)N[C@@H](CO)C(=O)NCC(=O)N[C@@H](C)C(=O)N1CCC[C@H]1C(=O)N1CCC[C@H]1C(=O)N1CCC[C@H]1C(=O)N[C@@H](CO)C(=O)N[C@@H](CCCCN)C(N)=O)C(C)C` [Compound 126] as the molecule, how does the EC50 ([1]; EC50 GLP-1R/nM, Table 3) read?
A: 10 to 100 nM

Q: What about the EC50 ([1]; EC50 GLP-1R/nM, Table 3A) of the same molecule?
A: 10 to 100 nM

Q: What about the Emax ([1]; Table 3) of the same molecule?
A: 84%

Q: And the Emax ([1]; Table 3A)?
A: 84%

Q: And the EC50 ([2]; EC50 GIP-R/nM, Table 3)?
A: 10 to 100 nM

Q: And the EC50 ([2]; EC50 GIP-R/nM, Table 3A)?
A: 10 to 100 nM

Q: And the Emax ([2]; Table 3)?
A: 42 to 51%

Q: What about the Emax ([2]; Table 3A) of the same molecule?
A: 42 to 51%

Q: `CC[C@H](C)[C@H](NC(=O)[C@H](CO)NC(=O)[C@H](Cc1ccc(O)cc1)NC(=O)[C@H](CC(=O)O)NC(=O)[C@H](CO)NC(=O)[C@@H](NC(=O)[C@H](Cc1ccccc1)NC(=O)[C@@H](NC(=O)CNC(=O)[C@H](CCC(=O)O)NC(=O)C(C)(C)C(=O)NCCN1C(=O)c2ccc(C)cc2C1=O)[C@@H](C)O)[C@@H](C)O)C(=O)N[C@@H](Cc1ccc(O)cc1)C(=O)N[C@@H](CC(C)C)C(=O)N[C@@H](CC(=O)O)C(=O)N[C@@H](CCCCN)C(=O)N[C@@H](CCC(N)=O)C(=O)N[C@@H](C)C(=O)N[C@@H](C)C(=O)NC(C)(C)C(=O)N[C@@H](CCC(=O)O)C(=O)N[C@@H](Cc1ccccc1)C(=O)N[C@H](C(=O)N[C@@H](CC(N)=O)C(=O)N[C@@H](Cc1c[nH]c2ccccc12)C(=O)N[C@@H](CC(C)C)C(=O)N[C@@H](CC(C)C)C(=O)N[C@@H](C)C(=O)NCC(=O)NCC(=O)N1CCC[C@H]1C(=O)N[C@@H](CO)C(=O)N[C@@H](CO)C(=O)NCC(=O)N[C@@H](C)C(=O)N1CCC[C@H]1C(=O)N1CCC[C@H]1C(=O)N1CCC[C@H]1C(=O)N[C@@H](CO)C(=O)N[C@@H](CCCCN)C(N)=O)C(C)C` [Compound 127] was tested. Which EC50 ([1]; EC50 GLP-1R/nM, Table 3) did it give?
A: 1 to 10 nM

Q: What about the EC50 ([1]; EC50 GLP-1R/nM, Table 3A) of the same molecule?
A: 1 to 10 nM

Q: And the Emax ([1]; Table 3)?
A: 95 to 107%

Q: And the Emax ([1]; Table 3A)?
A: 95 to 107%

Q: And the EC50 ([2]; EC50 GIP-R/nM, Table 3)?
A: 1 to 10 nM

Q: And the EC50 ([2]; EC50 GIP-R/nM, Table 3A)?
A: 1 to 10 nM

Q: What about the Emax ([2]; Table 3) of the same molecule?
A: 98 to 102%

Q: And the Emax ([2]; Table 3A)?
A: 98 to 102%

Q: What does the source list for `CC[C@H](C)[C@H](NC(=O)[C@H](CO)NC(=O)[C@H](Cc1ccc(O)cc1)NC(=O)[C@H](CC(=O)O)NC(=O)[C@H](CO)NC(=O)[C@@H](NC(=O)[C@H](Cc1ccccc1)NC(=O)[C@@H](NC(=O)CNC(=O)[C@H](CCC(=O)O)NC(=O)C(C)(C)C(=O)O)[C@@H](C)O)[C@@H](C)O)C(=O)N[C@@H](Cc1ccc(O)cc1)C(=O)N[C@@H](CC(C)C)C(=O)N[C@@H](CC(=O)O)C(=O)N[C@@H](CCCCN)C(=O)N[C@@H](CCC(N)=O)C(=O)N[C@@H](C)C(=O)N[C@@H](C)C(=O)NC(C)(C)C(=O)N[C@@H](CCC(=O)O)C(=O)N[C@@H](Cc1ccccc1)C(=O)N[C@H](C(=O)N[C@@H](CC(N)=O)C(=O)N[C@@H](Cc1c[nH]c2ccccc12)C(=O)N[C@@H](CC(C)C)C(=O)N[C@@H](CC(C)C)C(=O)N[C@@H](C)C(=O)NCC(=O)NCC(=O)N1CCC[C@H]1C(=O)N[C@@H](CO)C(=O)N[C@@H](CO)C(=O)NCC(=O)N[C@@H](C)C(=O)N1CCC[C@H]1C(=O)N1CCC[C@H]1C(=O)N1CCC[C@H]1C(=O)N[C@@H](CO)C(=O)N[C@@H](CCCCN)C(N)=O)C(C)C` [Compound 131]?
A: Emax ([1]; Table 3): 95%; EC50 [1, 3]: 1 to 10 nM; Emax ([1]; Table 3A): 95%; EC50 [1, 4]: 1 to 10 nM; Emax ([2]; Table 3): 3.2%; EC50 [2, 5]: > 1000 nM; EC50 [2, 6]: > 1000 nM

Q: How did the EC50 ([1]; EC50 GLP-1R/nM, Table 3) turn out when `CC[C@H](C)[C@H](NC(=O)[C@H](CO)NC(=O)[C@H](Cc1ccc(O)cc1)NC(=O)[C@H](CC(=O)O)NC(=O)[C@H](CO)NC(=O)[C@@H](NC(=O)[C@H](Cc1ccccc1)NC(=O)[C@@H](NC(=O)CNC(=O)[C@H](CCC(=O)O)NC(=O)CSCC(=O)NCCN1C(=O)c2ccccc2C1=O)[C@@H](C)O)[C@@H](C)O)C(=O)N[C@@H](Cc1ccc(O)cc1)C(=O)N[C@@H](CC(C)C)C(=O)N[C@@H](CC(=O)O)C(=O)N[C@@H](CCCCN)C(=O)N[C@@H](CCC(N)=O)C(=O)N[C@@H](C)C(=O)N[C@@H](C)C(=O)NC(C)(C)C(=O)N[C@@H](CCC(=O)O)C(=O)N[C@@H](Cc1ccccc1)C(=O)N[C@H](C(=O)N[C@@H](CCC(=O)O)C(=O)N[C@@H](Cc1c[nH]c2ccccc12)C(=O)N[C@@H](CC(C)C)C(=O)N[C@@H](CC(C)C)C(=O)N[C@@H](C)C(=O)NCC(=O)NCC(=O)N1CCC[C@H]1C(=O)N[C@@H](CO)C(=O)N[C@@H](CO)C(=O)NCC(=O)N[C@@H](C)C(=O)N1CCC[C@H]1C(=O)N1CCC[C@H]1C(=O)N1CCC[C@H]1C(=O)N[C@@H](CO)C(=O)N[C@@H](CCCCN)C(N)=O)C(C)C` [Compound 149] (X1-EGTFTSDYSIYLDKQAA[Aib]EFVEWLLAGGPSSGAPPPSK-NH2) was run?
A: 1 to 10 nM

Q: What about the EC50 ([1]; EC50 GLP-1R/nM, Table 3A) of the same molecule?
A: 1 to 10 nM

Q: What about the Emax ([1]; Table 3) of the same molecule?
A: 86 to 92%

Q: What about the Emax ([1]; Table 3A) of the same molecule?
A: 86 to 92%

Q: And the EC50 ([2]; EC50 GIP-R/nM, Table 3)?
A: < 0.1 nM

Q: What about the EC50 ([2]; EC50 GIP-R/nM, Table 3A) of the same molecule?
A: < 0.1 nM

Q: And the Emax ([2]; Table 3)?
A: 113%

Q: And the Emax ([2]; Table 3A)?
A: 113%
